In patent US9512126B2, “Substituted imidazopyridazines” (Bayer Intellectual Property GmbH, priority 2012, dated 2016):

What was measured:
human kinase Mps-1 = human kinase Mps-1 (Homo sapiens (Human), UniProt P33981); experiment: Mps-1 kinase assay (TR-FRET); format: biochemical; details: N-terminally GST-tagged human full length recombinant Mps-1, 10 μM ATP
Description: The human kinase Mps-1 phosphorylates a biotinylated substrate peptide. Detection of the phosphorylated product is achieved by time-resolved fluorescence resonance energy transfer (TR-FRET) from Europium-labelled anti-phospho-Serine/Threonine antibody as donor to streptavidin labelled with cross-linked allophycocyanin (SA-XLent) as acceptor. Compounds are tested for their inhibition of the kinase activity.
N-terminally GST-tagged human full length recombinant Mps-1 kinase (purchased from Invitrogen, Karslruhe, Germany, cat. no PV4071) was used. As substrate for the kinase reaction a biotinylated peptide of the amino-acid sequence […] (C-terminus in amide form, purchased from Biosynthan GmbH, Berlin) was used.
The concentration of Mps-1 in the assay was adjusted to the activity of the enzyme lot and was chosen appropriate to have the assay in the linear range, typical enzyme concentrations were in the range of about 1 nM (final conc. in the 5 μl assay volume).
The resulting mixture was incubated 1 h at 22° C. to allow the binding of the phosphorylated peptide to the anti-phospho(Ser/Thr)-Europium-antibody. Subsequently the amount of phosphorylated substrate was evaluated by measurement of the resonance energy transfer from the Europium-labelled anti-phospho(Ser/Thr) antibody to the Streptavidin-XLent.

[1] = In vitro metabolic stability in rat hepatocytes (including calculation of hepatic in vivo blood clearance); format: in vitro ADME; details: Han Wistar, hepatocytes (freshly isolated, suspension), read-out: CL (hepatic in vivo blood clearance) (converted)
Description: Investigation of In Vitro Metabolic Stability in Rat Hepatocytes (Including Calculation of Hepatic In Vivo Blood Clearance (CL))
Hepatocytes from Han Wistar rats were isolated via a 2-step perfusion method. After perfusion, the liver was carefully removed from the rat: the liver capsule was opened and the hepatocytes were gently shaken out into a Petri dish with ice-cold WME. The resulting cell suspension was filtered through sterile gaze in 50 ml falcon tubes and centrifuged at 50×g for 3 min at room temperature. The cell pellet was resuspended in 30 ml WME and centrifuged through a Percoll® gradient for 2 times at 100×g. The hepatocytes were washed again with Williams' medium E (WME) and resuspended in medium containing 5% FCS. Cell viability was determined by trypan blue exclusion.
For the metabolic stability assay liver cells were distributed in WME containing 5% FCS to glass vials at a density of 1.0×10^6 vital cells/ml. The test compound was added to a final concentration of 1 μM. During incubation, the hepatocyte suspensions were continuously shaken and aliquots were taken at 2, 8, 16, 30, 45 and 90 min, to which equal volumes of cold methanol were immediately added.
Samples were frozen at −20° C. over night, after subsequently centrifuged for 15 minutes at 3000 rpm and the supernatant was analyzed with an Agilent 1200 HPLC-system with LCMS/MS detection.
The half-life of a test compound was determined from the concentration-time plot. From the half-life the intrinsic clearances were calculated. Together with the additional parameters liver blood flow, amount of liver cells in vivo and in vitro. The hepatic in vivo blood clearance (CL) and the maximal oral bioavailability (Fmax) was calculated. The following parameter values were used: Liver blood flow—4.2 L/h/kg rat; specific liver weight—32 g/kg rat body weight; liver cells in vivo—1.1×10^8 cells/g liver, liver cells in vitro—0.5×10^6 ml.

Sequence of human kinase Mps-1 (P33981 whole entry): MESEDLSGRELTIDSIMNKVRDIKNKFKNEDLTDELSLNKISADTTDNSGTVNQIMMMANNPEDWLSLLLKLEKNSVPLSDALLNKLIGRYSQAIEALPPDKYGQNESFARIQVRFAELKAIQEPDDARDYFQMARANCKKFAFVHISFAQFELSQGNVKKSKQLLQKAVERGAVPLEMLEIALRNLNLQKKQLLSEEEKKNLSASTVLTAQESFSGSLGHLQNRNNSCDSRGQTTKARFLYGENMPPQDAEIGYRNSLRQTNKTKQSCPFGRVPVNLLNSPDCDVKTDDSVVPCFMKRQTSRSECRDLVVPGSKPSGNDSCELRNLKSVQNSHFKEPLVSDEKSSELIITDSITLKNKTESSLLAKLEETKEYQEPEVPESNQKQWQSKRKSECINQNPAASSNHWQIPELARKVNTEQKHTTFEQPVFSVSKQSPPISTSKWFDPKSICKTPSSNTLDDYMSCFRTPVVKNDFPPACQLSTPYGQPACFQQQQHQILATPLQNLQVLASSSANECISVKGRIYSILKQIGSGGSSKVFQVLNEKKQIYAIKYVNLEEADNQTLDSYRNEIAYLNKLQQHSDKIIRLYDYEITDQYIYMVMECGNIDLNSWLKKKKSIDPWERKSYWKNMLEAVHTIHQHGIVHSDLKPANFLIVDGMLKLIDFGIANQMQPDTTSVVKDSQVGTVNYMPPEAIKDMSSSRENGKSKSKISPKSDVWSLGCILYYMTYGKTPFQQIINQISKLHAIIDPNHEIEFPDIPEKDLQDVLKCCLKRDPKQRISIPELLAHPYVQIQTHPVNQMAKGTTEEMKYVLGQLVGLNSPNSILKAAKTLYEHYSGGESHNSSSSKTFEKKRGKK

| IC50 (human kinase Mps-1) [nM] | CLhep predicted at 1 μM [1] [mL/min/kg] | Structure (SMILES) |
| --- | --- | --- |
| 0.7 | 21.7 | Cc1cc(-c2cnc3c(NCCC(F)(F)F)cc(C(F)(F)c4cccc(F)c4)nn23)ccc1C(=O)NC1CC1 [Example 6, N-Cyclopropyl-4-{6-[difluoro(3-fluorophenyl)methyl]-8-[(3,3,3-trifluoropropyl)amino]imidazo[1,2-b]pyridazin-3-yl}-2-methylbenzamide] |
|  | 35 | Cc1cc(-c2cnc3c(NCCC(F)(F)F)cc(C(F)c4cccc(F)c4)nn23)ccc1C(=O)NC1CC1 (racemic) [Example 5, (RS)—N-Cyclopropyl-4-{6-[fluoro(3-fluorophenyl)methyl]-8-[(3,3,3-trifluoropropyl)amino]imidazo[1,2-b]pyridazin-3-yl}-2-methylbenzamide] |
